One experiment has as its target T1, 5-HT7 receptor (Homo sapiens, UniProt P34969).
T1 construct: purchased PerkinElmer
The experiment can be described thus: Radioligand binding assay, serotoninergic 5-HT7 receptors.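 Also: test compound at 1 µM.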 The following applies: binding assay result in %, Table 5a. In short, it runs like this:
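Ki values used the Cheng–Prusoff equation, with KD from Scatchard analysis, applied to IC50 from Hill fits of human 5-HT7 radioligand competition curves. Bound radioligand was counted by scintillation, and excess unlabelled ligand set the non-specific binding.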

A further experiment has as its target T2, receptors D4.4 (Homo sapiens, UniProt P21917).
T2 sequence (P21917 1-419): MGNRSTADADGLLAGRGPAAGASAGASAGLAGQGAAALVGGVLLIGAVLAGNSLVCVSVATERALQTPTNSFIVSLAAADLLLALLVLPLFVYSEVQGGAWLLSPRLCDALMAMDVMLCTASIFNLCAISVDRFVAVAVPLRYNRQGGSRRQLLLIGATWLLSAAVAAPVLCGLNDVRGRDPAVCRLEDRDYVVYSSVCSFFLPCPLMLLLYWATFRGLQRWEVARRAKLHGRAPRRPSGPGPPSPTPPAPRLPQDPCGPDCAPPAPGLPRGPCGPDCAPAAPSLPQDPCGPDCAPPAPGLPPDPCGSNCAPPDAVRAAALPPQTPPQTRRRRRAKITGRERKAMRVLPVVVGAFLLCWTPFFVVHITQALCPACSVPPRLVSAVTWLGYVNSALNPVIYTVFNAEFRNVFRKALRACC
The experiment can be described thus: Radioligand binding assay, dopaminergic D4 (D4.4) receptors. As to conditions: test compound 1×10^−6 M. An excerpt:
(§1) The specific ligand binding to the receptors is defined as the difference between the total binding and the non-specific binding determined in the presence of the excess of unlabelled ligand.
(§2) The results are expressed as a percent of control specific binding ((measured specific binding/control specific binding)×100) and as a percent inhibition of control specific binding (100−((measured specific binding/control specific binding)×100)) obtained in the presence of the test compounds. The specific ligand binding to the receptors is defined as the difference between the total binding and the nonspecific binding determined in the presence of an excess of unlabelled ligand. Scintillation counting was the method of detection of ligand binding. The IC50 values (concentration causing a half-maximal inhibition of control specific binding) were determined by non-linear regression analysis of the competition curves generated with mean replicate values using Hill equation curve fitting (Y=D+[(A−D)/(1+(C/C50)nH)], where Y=specific binding, D=minimum specific binding, A=maximum specific binding, C=compound concentration, C50=IC50, and nH=slope factor). This analysis was performed using a software developed at Cerep (Hill software) and validated by comparison with data generated by the commercial software SigmaPlot® 4.0 for Windows® (© 1997 by SPSS Inc.). The inhibition constants (Ki) were calculated using the Cheng Prusoff equation (Ki=IC50/(1+(L/KD)), where L=concentration of radioligand in the assay, and KD=affinity of the radioligand for the receptor). A scatchard plot was used to determine the Kd.
Experimental conditions for tests are given in Table 1, the results of tests for representative compounds are given in Tables 2a and 2b (receptors D2 and D3) and in Table 3 (receptors D4).

Experiment [1] concerns the target 5-HT7 serotoninergic receptors (Homo sapiens, UniProt P34969). The experiment is described as follows: Cellular functional assay, 5-HT7 serotoninergic receptors. It counts as cell-based. As to conditions: for 5-HT7 ag [%]: agonist mode, percent of control specific agonist response; for 5-HT7 antag [%]: antagonist mode. The method, then: The results are expressed as a percent of control specific agonist response ((measured specific response/control specific agonist response)×100) obtained in the presence of the test compounds.
The EC50 values (concentration producing a half-maximal specific response) and IC50 values (concentration causing a half-maximal inhibition of the control specific agonist response) were determined by non-linear regression analysis of the concentration-response curves generated with mean replicate values using Hill equation curve fitting (Y=D+[(A−D)/(1+(C/C50)nH)], where Y=specific response, D=minimum specific response, A=maximum specific response, C=compound concentration, and C50=EC50 or IC50, and nH=slope factor). This analysis was performed using a software developed at Cerep (Hill software) and validated by comparison with data generated by the commercial software SigmaPlot® 4.0 for Windows® (© 1997 by SPSS Inc.).
For the antagonists, the apparent dissociation constants (Kb) were calculated using the modified Cheng Prusoff equation (Kb=IC50/(1+(A/EC50A)), where A=concentration of reference agonist in the assay, and EC50A=EC50 value of the reference agonist).

For the next experiment, the target named is T3, 5-HT6 receptor (Homo sapiens, UniProt P50406).
T3 construct: purchased PerkinElmer
T3 sequence (P50406 whole entry): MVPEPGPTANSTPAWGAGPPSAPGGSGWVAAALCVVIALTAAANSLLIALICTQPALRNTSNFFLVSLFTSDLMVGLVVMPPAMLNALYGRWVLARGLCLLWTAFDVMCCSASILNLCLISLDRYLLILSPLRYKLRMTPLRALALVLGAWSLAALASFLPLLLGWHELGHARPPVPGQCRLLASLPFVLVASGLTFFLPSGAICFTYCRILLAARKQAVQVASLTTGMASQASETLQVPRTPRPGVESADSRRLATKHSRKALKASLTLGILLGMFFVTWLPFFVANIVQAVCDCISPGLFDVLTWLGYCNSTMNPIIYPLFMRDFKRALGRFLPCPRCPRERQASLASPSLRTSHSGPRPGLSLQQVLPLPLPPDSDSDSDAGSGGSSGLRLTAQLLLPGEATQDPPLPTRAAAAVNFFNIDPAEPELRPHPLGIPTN
The experiment can be described thus: Radioligand binding assay, serotoninergic 5-HT6 receptors.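 Also: test compound at 1 µM.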 As to conditions: binding assay result in %, Table 5a. In short, it runs like this: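 Values are Ki from Cheng–Prusoff, taking IC50 from Hill nonlinear regression of competition curves and KD from a Scatchard plot. Specific binding was total minus binding with excess unlabelled ligand. Radioligand displacement was detected by scintillation counting, and data were also reported as percent of control specific binding.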

For the next experiment, the target named is T4, α2C adrenergic receptors (Homo sapiens, UniProt P18825).
T4 construct: expressed in transfected cells; host or cells: CHO cells
T4 sequence (P18825 1-462): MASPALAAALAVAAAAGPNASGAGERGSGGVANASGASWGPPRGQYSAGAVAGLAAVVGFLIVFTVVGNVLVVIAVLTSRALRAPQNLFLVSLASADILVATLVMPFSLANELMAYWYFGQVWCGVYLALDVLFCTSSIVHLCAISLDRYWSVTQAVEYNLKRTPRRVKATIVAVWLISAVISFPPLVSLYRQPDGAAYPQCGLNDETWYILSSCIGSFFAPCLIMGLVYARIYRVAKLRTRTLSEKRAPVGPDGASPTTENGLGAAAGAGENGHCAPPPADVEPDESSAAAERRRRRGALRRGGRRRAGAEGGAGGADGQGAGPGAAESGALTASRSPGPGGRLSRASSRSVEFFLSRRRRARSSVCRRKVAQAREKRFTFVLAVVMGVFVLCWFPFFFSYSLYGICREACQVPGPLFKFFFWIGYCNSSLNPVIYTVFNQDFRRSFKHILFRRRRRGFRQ
The experiment is described as follows: Radioligand binding assay, adrenergic α2C receptors. As to conditions: test compound 1×10^−6 M.
Description: as §1, §2
Experimental conditions for tests are given in Table 7, and results of tests for representative compounds are given in Tables 8 (α1 receptors) and in Tables 9 (α2C receptors).

5-HT7 serotoninergic receptors, sequence (P34969 whole entry): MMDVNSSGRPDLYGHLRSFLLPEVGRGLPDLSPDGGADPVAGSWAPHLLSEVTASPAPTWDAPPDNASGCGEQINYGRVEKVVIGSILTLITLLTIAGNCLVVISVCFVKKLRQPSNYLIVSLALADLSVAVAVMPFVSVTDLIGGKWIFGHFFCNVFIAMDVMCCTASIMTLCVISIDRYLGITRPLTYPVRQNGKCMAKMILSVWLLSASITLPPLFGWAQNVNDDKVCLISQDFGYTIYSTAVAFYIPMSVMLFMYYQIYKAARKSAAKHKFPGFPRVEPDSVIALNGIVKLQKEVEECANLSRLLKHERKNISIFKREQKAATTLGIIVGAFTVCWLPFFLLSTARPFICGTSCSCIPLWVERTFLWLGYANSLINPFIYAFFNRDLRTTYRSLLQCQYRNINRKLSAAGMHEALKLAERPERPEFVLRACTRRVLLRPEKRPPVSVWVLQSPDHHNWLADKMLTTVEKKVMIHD
T1 sequence (P34969 whole entry): as above

Broadly, the inhibition is the drop in the measured response relative to a control, in per cent. For `O=S(=O)(NC1CN(CCOc2cccc3[nH]ccc23)C1)c1cccc2ccccc12` [Compound 49, N-[1-[2-(1H-Indol-4-yloxy)ethyl]azetidin-3-yl]naphthalene-1-sulphonamide], the inhibition at 1 µM was found to be 100% on 5-HT7 receptor, 82% at receptors D4.4, 34% on 5-HT6 receptor and 110% at α2C adrenergic receptors. The “5-HT7 ag [%]” value in experiment [1] was determined as 26%.
As for `O=S(=O)(NC1CN(CCOc2cccc3c2OCCO3)C1)c1ccc(Cl)cc1` [Compound 92, 4-Chloro-N-[1-[2-(2,3-dihydro-1,4-benzodioxan-8-yloxy)ethyl]azetidin-3-yl]benzene-sulphonamide], the “5-HT7 [%]” value at 5-HT7 receptor is listed as 99%. The “D4.4 [%]” value on receptors D4.4 is recorded as 35%. In experiment [1], the “5-HT7 ag [%]” value is recorded as 18% and the “5-HT7 antag [%]” value came out at 69%. Moreover, the “5-HT6 [%]” value at 5-HT6 receptor is listed as 23%. Also, at α2C adrenergic receptors, the “α2C [%]” value was 76%.
Regarding `Cc1cccc(S(=O)(=O)NC2CN(CCOc3cccc4c3OCCO4)C2)c1` [Compound 93, N-[1-[2-(2,3-Dihydro-1,4-benzodioxan-8-yloxy)ethyl]azetidin-3-yl]-3-methyl-benzenesulphonamide], the “5-HT7 [%]” value on 5-HT7 receptor amounted to 99%. Further, the “D4.4 [%]” value on receptors D4.4 is 39%. Besides, in experiment [1], the “5-HT7 ag [%]” value was determined as 13% and the “5-HT7 antag [%]” value is 76%. Besides, the “5-HT6 [%]” value at 5-HT6 receptor worked out at 29%. In addition, the “α2C [%]” value at α2C adrenergic receptors is 84%.
For `CC(C)(C)c1ccc(S(=O)(=O)NCC2CN(CCOc3cccc4c3OCCO4)C2)cc1` [Compound 181, 4-tert-Butyl-N-[[1-[2-(2,3-dihydro-1,4-benzodioxin-5-yloxy)ethyl]azetidin-3-yl]methyl]benzenesulphonamide], the inhibition at 1 µM on 5-HT7 receptor stood at 92%; on receptors D4.4 it was 64%; at 5-HT6 receptor, 30%; at α2C adrenergic receptors, 96%. Moreover, the “5-HT7 ag [%]” value in experiment [1] was 0%.
Regarding `Cn1ccc2cc(S(=O)(=O)NCC3CCN(CCOc4cccc5c4OCCO5)C3)ccc21` (stereo not shown) [Compound 308, N-[[1-[2-(2,3-Dihydro-1,4-benzodioxin-5-yloxy)ethyl]pyrrolidin-3-yl]methyl]-1-methyl-indole-5-sulphonamide], the inhibition at 1 µM came to 83% on 5-HT7 receptor, 26% on receptors D4.4, 44% at 5-HT6 receptor and 96% on α2C adrenergic receptors.
For `Cc1cc(S(=O)(=O)NCC2CCN(CCOc3cccc4c3OCCO4)C2)c(C)s1` (stereo not shown) [Compound 312, N-[[1-[2-(2,3-Dihydro-1,4-benzodioxin-5-yloxy)ethyl]pyrrolidin-3-yl]methyl]-2,5-dimethylthiophene-3-sulphonamide] the same measures were 86%, 52%, 19% and 94%.
As for `O=S(=O)(NCC1CCN(CCOc2cccc3c2OCCO3)C1)c1ccc(F)c(Cl)c1` (stereo not shown) [Compound 317, 3-Chloro-N-[[1-[2-(2,3-dihydro-1,4-benzodioxin-5-yloxy)ethyl]pyrrolidin-3-yl]methyl]-4-fluorobenzenesulphonamide], the inhibition at 1 µM on 5-HT7 receptor was 95%; at receptors D4.4, 59%; at 5-HT6 receptor, 76%; on α2C adrenergic receptors, 95%.

Source of the values: patent publication US20140135310A1, “SULPHONAMIDE DERIVATIVES OF ALICYCLIC AMINES FOR THE TREATMENT OF CENTRAL NERVOUS SYSTEM DISEASES” (Adamed Sp. z o.o., priority 2011, published 2014).
